In patent publication US6355799B1, “Substituted benzene compounds, process for their preparation, and herbicidal and defoliant compositions containing them” (ISK Americas Incorporated, priority 1997, dated 2002):

Assays:
Assay type in all cases: in vivo
[1] = system: ivyleaf morningglory (Ipomoea hederacea, IPOHE); experiment: Post-emerge test, greenhouse herbicide activity screening; conditions: post-emerge, 14 days after application, rating scale 0-100
Method in brief: (§1)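 Rating: 0–100 visual injury, 14 DAA. Application: acetone, 187 l/ha, 15–1000 g ai/ha, flat-fan track sprayer with nozzle 40–45 cm above soil or canopy. Post-emerge runs used 0.25% v/v surfactant on 2–3 leaf plants.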

[2] = system: large crabgrass (Digitaria sanguinalis, DIGSA); experiment: as above; conditions: post-emerge, 14 days after application, rating scale 0-100
Method in brief: as §1

[3] = system: sicklepod (Cassia obtusifolia, CASOB); experiment: as above; conditions: post-emerge, 14 days after application, rating scale 0-100
Method in brief: as §1

[4] = system: johnsongrass (Sorghum halepense, SORHA); experiment: as above; conditions: post-emerge, 14 days after application, rating scale 0-100
Method in brief: as §1

[5] = system: green foxtail (Setaria viridis, SETVI); experiment: as above; conditions: post-emerge, 14 days after application, rating scale 0-100
Method in brief: as §1

[6] = system: velvetleaf (Abutilon theophrasti, ABUTH); experiment: as above; conditions: post-emerge, 14 days after application, rating scale 0-100
Method in brief: as §1

[7] = system: lambsquarters (Chenopodium album, CHEAL); experiment: as above; conditions: post-emerge, 14 days after application, rating scale 0-100
Method in brief: as §1

[8] = system: barnyardgrass (Echinochloa crus-galli, ECHCG); experiment: as above; conditions: post-emerge, 14 days after application, rating scale 0-100
Method in brief: as §1

[9] = system: redroot pigweed (Amaranthus retroflexus, AMARE); experiment: as above; conditions: post-emerge, 14 days after application
Method in brief: as §1

[10] = system: redroot pigweed (Amaranthus retroflexus, AMARE); experiment: Pre-emerge test, greenhouse herbicide activity screening; conditions: phytotoxicity rating 0-100, 14 days after application
Method in brief: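 Sandy loam pots; pre-emerge: sown 1 d pre-spray, surface-watered after, then bottom-watered. Post-emerge: sown 8–21 d before, 2–3 leaf stage, + 0.25% v/v NIS, bottom-watered. Acetone, 187 l/ha track spray, 15–1000 g ai/ha. 0–100 injury score, day 14.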

[11] = system: ivyleaf morningglory (Ipomoea hederacea, IPOHE); experiment: as above; conditions: phytotoxicity rating 0-100, 14 days after application
Method in brief: (§2)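 Fourteen days after spraying, crop and weed injury was graded visually from 0, no effect, to 100, every plant dead. Test substances were dissolved in acetone and applied at 15–1000 g ai/ha with a flat-fan nozzle. Application was either pre-emergence, one day after sowing, or post-emergence at the 2–3 leaf stage.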

[12] = system: large crabgrass (Digitaria sanguinalis, DIGSA); experiment: as above; conditions: phytotoxicity rating 0-100, 14 days after application
Method in brief: as §2

[13] = system: sicklepod (Cassia obtusifolia, CASOB); experiment: as above; conditions: phytotoxicity rating 0-100, 14 days after application
Method in brief: as §2

[14] = system: johnsongrass (Sorghum halepense, SORHA); experiment: as above; conditions: phytotoxicity rating 0-100, 14 days after application
Method in brief: as §2

[15] = system: green foxtail (Setaria viridis, SETVI); experiment: as above; conditions: phytotoxicity rating 0-100, 14 days after application
Method in brief: as §2

[16] = system: velvetleaf (Abutilon theophrasti, ABUTH); experiment: as above; conditions: phytotoxicity rating 0-100, 14 days after application
Method in brief: as §2

[17] = system: lambsquarters (Chenopodium album, CHEAL); experiment: as above; conditions: phytotoxicity rating 0-100, 14 days after application
Method in brief: as §2

[18] = system: barnyardgrass (Echinochloa crus-galli, ECHCG); experiment: as above; conditions: phytotoxicity rating 0-100, 14 days after application
Method in brief: as §2

[19] = system: upland rice (Oryza sp., var. Tebonnet, RICE); experiment: Pre-emerge test, crop safety; conditions: crop damage rating 0-100, 14 days after application
Method in brief: (§3)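 Compounds in acetone were track-sprayed at 15-1000 g ai/ha (187 l/ha) on sandy loam pots: pre-emerge one day after seeding, post-emerge at 2-3 leaf stage with 0.25% v/v non-ionic surfactant. Phytotoxicity was rated 14 days later on a 0 (no damage) to 100 (complete death) scale.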

[20] = system: field corn (Zea mays L., var. Dekalb 535, CORN); experiment: Pre-emerge test, crop safety; conditions: crop damage rating 0-100, 14 days after application
Method in brief: as §3

[21] = system: upland rice (Oryza sp., var. Tebonnet, RICE); experiment: Post-emerge test, crop safety; conditions: post-emerge, 14 days after application, rating scale 0-100
Method in brief: as §2

[22] = system: field corn (Zea mays L., var. Dekalb 535, CORN); experiment: Post-emerge test, crop safety; conditions: post-emerge, 14 days after application, rating scale 0-100
Method in brief: as §2

[23] = 63 g ai/ha, rating scale 0-100 (0 no damage, 100 complete death)
[24] = 250 g ai/ha, rating scale 0-100

Compound: CCc1ccc(COC(=O)Nc2c(OC)c(Cl)cc(F)c2-n2c(=O)cc(C(F)(F)F)n(C)c2=O)cc1 [4-31]
- phytotoxicity rating IPOHE ([1]; 63 g ai/ha): 100
- phytotoxicity rating IPOHE ([1]; 250 g ai/ha): 100
- phytotoxicity rating DIGSA ([2]; 63 g ai/ha): 0
- phytotoxicity rating DIGSA ([2]; 250 g ai/ha): 10
- phytotoxicity rating CASOB ([3]; 63 g ai/ha): 10
- phytotoxicity rating CASOB ([3]; 250 g ai/ha): 30
- phytotoxicity rating SORHA ([4]; 63 g ai/ha): 0
- phytotoxicity rating SORHA ([4]; 250 g ai/ha): 10
- phytotoxicity rating SETVI ([5]; 63 g ai/ha): 20
- phytotoxicity rating SETVI ([5]; 250 g ai/ha): 40
- phytotoxicity rating ABUTH ([6]; 63 g ai/ha): 100
- phytotoxicity rating ABUTH ([6]; 250 g ai/ha): 100
- phytotoxicity rating CHEAL ([7]; 63 g ai/ha): 100
- phytotoxicity rating CHEAL ([7]; 250 g ai/ha): 100
- phytotoxicity rating ECHCG ([8]; 63 g ai/ha): 10
- phytotoxicity rating ECHCG ([8]; 250 g ai/ha): 10
- phytotoxicity rating AMARE [9, 23]: 100
- phytotoxicity rating AMARE [9, 24]: 100
- Pre-emerge Herbicidal Activity AMARE ([10]; 63 g ai/ha): 100
- Pre-emerge Herbicidal Activity AMARE ([10]; 250 g ai/ha): 100
- Pre-emerge Herbicidal Activity IPOHE ([11]; 63 g ai/ha): 0
- Pre-emerge Herbicidal Activity IPOHE ([11]; 250 g ai/ha): 40
- Pre-emerge Herbicidal Activity DIGSA ([12]; 63 g ai/ha): 50
- Pre-emerge Herbicidal Activity DIGSA ([12]; 250 g ai/ha): 100
- Pre-emerge Herbicidal Activity CASOB ([13]; 63 g ai/ha): 0
- Pre-emerge Herbicidal Activity CASOB ([13]; 250 g ai/ha): 10
- Pre-emerge Herbicidal Activity SORHA ([14]; 63 g ai/ha): 10
- Pre-emerge Herbicidal Activity SORHA ([14]; 250 g ai/ha): 20
- Pre-emerge Herbicidal Activity SETVI ([15]; 63 g ai/ha): 90
- Pre-emerge Herbicidal Activity SETVI ([15]; 250 g ai/ha): 100
- Pre-emerge Herbicidal Activity ABUTH ([16]; 63 g ai/ha): 30
- Pre-emerge Herbicidal Activity ABUTH ([16]; 250 g ai/ha): 100
- Pre-emerge Herbicidal Activity CHEAL ([17]; 63 g ai/ha): 90
- Pre-emerge Herbicidal Activity CHEAL ([17]; 250 g ai/ha): 100
- Pre-emerge Herbicidal Activity ECHCG ([18]; 63 g ai/ha): 10
- Pre-emerge Herbicidal Activity ECHCG ([18]; 250 g ai/ha): 30
- Pre-emerge Herbicidal Activity RICE ([19]; 63 g ai/ha): 10
- Pre-emerge Herbicidal Activity RICE ([19]; 250 g ai/ha): 30
- Pre-emerge Herbicidal Activity CORN ([20]; 63 g ai/ha): 0
- Pre-emerge Herbicidal Activity CORN ([20]; 250 g ai/ha): 10
- phytotoxicity rating RICE (crop damage) ([21]; 63 g ai/ha): 20
- phytotoxicity rating RICE (crop damage) ([21]; 250 g ai/ha): 40
- phytotoxicity rating CORN (crop damage) ([22]; 63 g ai/ha): 10
- phytotoxicity rating CORN (crop damage) ([22]; 250 g ai/ha): 25

Compound: COc1c(Cl)cc(F)c(-n2c(=O)cc(C(F)(F)F)n(C)c2=O)c1NC(=O)OCc1ccc(Cl)c(Cl)c1 [4-32]
- phytotoxicity rating IPOHE ([1]; 63 g ai/ha): 100
- phytotoxicity rating IPOHE ([1]; 250 g ai/ha): 100
- phytotoxicity rating DIGSA ([2]; 63 g ai/ha): 10
- phytotoxicity rating DIGSA ([2]; 250 g ai/ha): 20
- phytotoxicity rating CASOB ([3]; 63 g ai/ha): 80
- phytotoxicity rating CASOB ([3]; 250 g ai/ha): 80
- phytotoxicity rating SORHA ([4]; 63 g ai/ha): 10
- phytotoxicity rating SORHA ([4]; 250 g ai/ha): 30
- phytotoxicity rating SETVI ([5]; 63 g ai/ha): 30
- phytotoxicity rating SETVI ([5]; 250 g ai/ha): 50
- phytotoxicity rating ABUTH ([6]; 63 g ai/ha): 90
- phytotoxicity rating ABUTH ([6]; 250 g ai/ha): 100
- phytotoxicity rating CHEAL ([7]; 63 g ai/ha): 100
- phytotoxicity rating CHEAL ([7]; 250 g ai/ha): 100
- phytotoxicity rating ECHCG ([8]; 63 g ai/ha): 0
- phytotoxicity rating ECHCG ([8]; 250 g ai/ha): 20
- phytotoxicity rating AMARE [9, 23]: 100
- phytotoxicity rating AMARE [9, 24]: 100
- Pre-emerge Herbicidal Activity AMARE ([10]; 63 g ai/ha): 50
- Pre-emerge Herbicidal Activity AMARE ([10]; 250 g ai/ha): 100
- Pre-emerge Herbicidal Activity IPOHE ([11]; 63 g ai/ha): 0
- Pre-emerge Herbicidal Activity IPOHE ([11]; 250 g ai/ha): 40
- Pre-emerge Herbicidal Activity DIGSA ([12]; 63 g ai/ha): 20
- Pre-emerge Herbicidal Activity DIGSA ([12]; 250 g ai/ha): 80
- Pre-emerge Herbicidal Activity CASOB ([13]; 63 g ai/ha): 0
- Pre-emerge Herbicidal Activity CASOB ([13]; 250 g ai/ha): 30
- Pre-emerge Herbicidal Activity SORHA ([14]; 63 g ai/ha): 0
- Pre-emerge Herbicidal Activity SORHA ([14]; 250 g ai/ha): 30
- Pre-emerge Herbicidal Activity SETVI ([15]; 63 g ai/ha): 30
- Pre-emerge Herbicidal Activity SETVI ([15]; 250 g ai/ha): 95
- Pre-emerge Herbicidal Activity ABUTH ([16]; 63 g ai/ha): 0
- Pre-emerge Herbicidal Activity ABUTH ([16]; 250 g ai/ha): 70
- Pre-emerge Herbicidal Activity CHEAL ([17]; 63 g ai/ha): 80
- Pre-emerge Herbicidal Activity CHEAL ([17]; 250 g ai/ha): 100
- Pre-emerge Herbicidal Activity ECHCG ([18]; 63 g ai/ha): 0
- Pre-emerge Herbicidal Activity ECHCG ([18]; 250 g ai/ha): 50
- Pre-emerge Herbicidal Activity RICE ([19]; 63 g ai/ha): 0
- Pre-emerge Herbicidal Activity RICE ([19]; 250 g ai/ha): 30
- Pre-emerge Herbicidal Activity CORN ([20]; 63 g ai/ha): 0
- Pre-emerge Herbicidal Activity CORN ([20]; 250 g ai/ha): 10
- phytotoxicity rating RICE (crop damage) ([21]; 63 g ai/ha): 20
- phytotoxicity rating RICE (crop damage) ([21]; 250 g ai/ha): 40
- phytotoxicity rating CORN (crop damage) ([22]; 63 g ai/ha): 20
- phytotoxicity rating CORN (crop damage) ([22]; 250 g ai/ha): 30
